The results in this text go back to patent publication US4448777A, “1-Phenylindazole-3-one compounds, process and intermediates for their preparation, and pharmaceutical compositions containing same” (Kali-Chemie Pharma GmbH, priority 1981, dated 1984).

One experiment deals with passive cutaneous anaphylaxis (PCA). The experiment can be described thus: Inhibition of passive cutaneous anaphylaxis (PCA test) in rats. In kind it is in vivo. Conditions: Rattus norvegicus, po, 10 minutes before intraperitoneal ovoalbumin and Evans blue, blue spot diameter after 30 minutes, read-out: P.C.A. Inhibition ED50. How it is done: For example, the substances have an inhibiting action on the release of endogenic mediators, from mast cells or basophilic leucocytes, which leads to allergic reactions. The doses to be used vary, of course, depending upon the nature of the substance used, upon the mode of administration and upon the condition to be treated. In general, however, satisfactory results are obtained in animal experiments with peroral doses of between 0.05 and 75 mg. per kg. of body weight. Thus, the new compounds have a specific inhibiting action in the PCA test (passive cutaneous anaphylaxis)in rats which is described below.
Description of the test method to determine the inhibition of passive cutaneous anaphylasis (PCA test, see Arch.int.pharmacology 252 (1981) 316-326)
To prepare the IgE-antiovoalbumin serum, used in this test, by the method of Mota (Immunology 7, (1964) 681) and J. Goose (Immunology 16 (1969) 749), male Wistar rats of 200-250 g. body weight were sensitised by subcutaneous injection of 1 mg. of ovoalbumin and 1 ml. of Bordetella pertussis suspension ("Vaxicoq" Merieux 3×10^10 organisms/ml). After 14 days, the animals are exsanguinated and the blood is centrifuged. The antiserum thus obtained is stored at […].
Non-sensitised rats were injected with in each case 0.1 ml. of antiserum into the skin at in each case four different sites on their shaven backs. After 72 hours, a solution of the test compound, or, for comparison, only the solvent, is administered orally, and 10 minutes later 5 mg. of ovoalbumin and 5 mg. of blue dye (Evans blue) in 0.9% strength sodium chloride solution are administered intraperitoneally. After 30 minutes, the animals are sacrificed and the diameters of the blue spots formed at the sites injected with the antiserum are measured. The inhibiting effect of the test substance is determined from the size of the blue spots which occur. […]
As for `O=c1c2ccccc2n(-c2ccccc2)n1CCCCN1CCN(c2ccccc2)CC1` [Example 12], the ED50 worked out at 22 mg/kg. Same read-out and setting: for `O=c1c2ccccc2n(-c2ccccc2)n1CCCN1CCN(c2ccc(F)cc2)CC1` [Example 15] the value was 10.6 mg/kg; for `O=c1c2ccccc2n(-c2ccccc2)n1CCCCN1CCN(c2ccc(F)cc2)CC1` [Example 17], 17.9 mg/kg; for `O=c1c2ccccc2n(-c2ccccc2)n1CCCCN1CCN(c2ccccn2)CC1` [Example 18], 25 mg/kg. The same measure, in the same setting: for `O=c1c2ccccc2n(-c2ccccc2)n1CCCN1CCN(c2ccccn2)CC1` [Example 19] the value was 11.5 mg/kg. Take `Cc1ccnc(N2CCN(CCCn3c(=O)c4ccccc4n3-c3ccccc3)CC2)c1` [Example 21]: the ED50 is 19.2 mg/kg. The same measure, in the same setting: for `COc1ccccc1N1CCN(CCCCn2c(=O)c3ccc(Cl)cc3n2-c2ccccc2)CC1` [Example 26] the value was 22 mg/kg; for `COc1ccc2c(c1)c(=O)n(CCCCN1CCN(c3cc(C)ccn3)CC1)n2-c1ccccc1` [Example 28], 5.7 mg/kg.

As for `COc1ccc2c(c1)c(=O)n(CCCCN1CCN(c3ccccc3OC)CC1)n2-c1ccccc1` [Example 29], the ED50 stood at 14 mg/kg. With `Cc1ccnc(N2CCN(CCCCn3c(=O)c4ccccc4n3-c3cccc(C(F)(F)F)c3)CC2)c1` [Example 32], the ED50 is 6.6 mg/kg.

Still in this experiment, the particulars now being: oral, 10 minutes before intraperitoneal ovoalbumin and Evans blue, blue spot diameter after 30 minutes.
As to `Cc1ccnc(N2CCN(CCCCn3c(=O)c4ccccc4n3-c3ccccc3)CC2)c1` [Example 20], the “P.C.A. Inhibition ED50” value was found to be 7.5 mg/kg. Same read-out and setting: under `Cc1ccnc(N2CCN(CCCCn3c(=O)c4ccccc4n3-c3ccccc3)CC2)c1` [Example 49] stands 15.5 mg/kg.

By ED50 is commonly meant the midpoint of the dose-response relation.
